The values below come from patent US20070149508A1, “Six membered heteroaromatic inhibitors targeting resistant kinase mutations” (TargeGen, Inc., priority 2005, published 2007).

Where a name gives a salt, the structure may show the parent alone.

One test has as its target Abl kinase (Homo sapiens, UniProt P00519). The test is described as follows: biochemical. The note with it: Abl IC50 (nM), Abl kinase (Invitrogen, 20 ng/well), Abltide 100 μM, ATP 500 nM, 37° C. for 60 minutes, top concentration 10 uM.
The target of the next test is T1, Abl (T315I) (Homo sapiens, UniProt P00519, T315I).
T1 construct: purchased Upstate
The test is described as follows: Abl (T315I) Kinase Assay (KinaseGlo luminescent detection of residual ATP). It counts as biochemical. Particulars: Abl (T315I) IC50 (nM), Abl (T315I) (Upstate, 17 ng/well), Abltide 100 uM, ATP 500 nM, 60 minutes at 37° C. As for the experimental part:
The assay was performed similarly to the Abl kinase assay. Abl (T315I) (Upstate, 17 ng/well); Abltide substrate (100 uM) and ATP (500 nM) comprised the reaction mixture. Compound was similarly diluted, and the reaction plate was incubated for 60 minutes at 37° C.

Procedure for Abl kinase: Kinase activity was assessed using luminescent detection (KinaseGlo, Promega) of residual ATP concentration in reaction mixtures containing optimized levels of kinase, substrate, ATP, compound and appropriate buffers. Kinase, substrate and ATP concentrations were determined per the supplier's recommendations. Briefly, this involved running concentration curves to select for optimal signal.
The reaction mixture (50 ul/well) consisted of Abl kinase (Invitrogen, 20 ng/well); Abltide peptide substrate (Upstate, 100 μM) and ATP (500 nM). Each compound was evaluated at a top concentration of 10 uM with 1:3 dilution steps, 10 dilution steps total. Compound was diluted into DMSO and transferred to the reaction plate, resulting in a final DMSO concentration of 2%. This amount of DMSO was determined not to interfere with the enzyme. The reaction was conducted at 37° C. for 60 minutes. The degree of inhibition was assessed using IC50 determinations, which were obtained using GraphPad Prism4.

As a reminder, the IC50 is the midpoint of a concentration-inhibition curve. Turning to `O=S(=O)(c1ccc(Nc2ncc(/C=C/c3cccc4[nH]ncc34)cn2)cc1NCCO)N1CCNCC1` [2-{[5-({5-[(E)-2-(1H-indazol-4-yl)vinyl]pyrimidin-2-yl}amino)-2-(piperazin-1-ylsulfonyl)phenyl]amino}ethanol], the IC50 against Abl kinase stood at 6.5 nM; on Abl (T315I), 233 nM.
The like results for `Nc1nc2ccc(/C=C/c3cnc(Nc4ccc(S(=O)(=O)N5CCNCC5)c(C(F)(F)F)c4)nc3)cc2s1` [6-[(E)-2-(2-{[4-(piperazin-1-ylsulfonyl)-3-(trifluoromethyl)phenyl]amino)pyrimidin-5-yl)vinyl]-1,3-benzothiazol-2-amine] were, in that order, 1020 nM and 2100 nM.
The like results for `Nc1nc2ccc(/C=C/c3cnc(Nc4ccc(S(=O)(=O)N5CCC(O)CC5)cc4)nc3)cc2s1` [(E)-1-(4-(5-(2-(2-aminobenzo[d]thiazol-6-yl)vinyl)pyrimidin-2-ylamino)phenylsulfonyl)piperidin-4-ol] were, in that order, 922 nM and 317 nM.
The like results for `C(=C\c1cccc2[nH]ccc12)/c1cnc(Nc2cccc(N3CCNCC3)c2)nc1` [{5-[2-(1H-Indol-4-yl)-vinyl]-pyrimidin-2-yl}-(3-piperazin-1-yl-phenyl)-amine] were, in that order, 86 nM and 2600 nM.
Regarding `O=S(=O)(NCCN1CCCC1)c1ccc(Nc2ncc(/C=C/c3cc(O)ccc3Cl)cn2)cc1` [4-{5-[2-(2-Chloro-5-hydroxy-phenyl)-vinyl]-pyrimidin-2-ylamino}-N-(2-pyrrolidin-1-yl-ethyl)-benzenesulfonamide], the IC50 is 7.7 nM against Abl kinase and 390 nM on Abl (T315I).
The like results for `Nc1nc2ccc(/C=C/c3cnc(Nc4ccc(S(=O)(=O)N5CCNCC5)cc4)nc3)cc2s1` [(E)-6-(2-(2-(4-(piperazin-1-ylsulfonyl)phenylamino)pyrimidin-5-yl)vinyl)benzo[d]thiazol-2-amine] were, in that order, 40 nM and 38 nM.
On the same counts, the results for `Nc1nc2ccc(/C=C/c3cnc(Nc4ccc(S(=O)(=O)NCCO)c(N5CCNCC5)c4)nc3)cc2s1` [4-({5-[(E)-2-(2-amino-1,3-benzothiazol-6-yl)vinyl]pyrimidin-2-yl}amino)-N-(2-hydroxyethyl)-2-piperazin-1-ylbenzenesulfonamide] are 585 nM and 354 nM.
On the same counts, the results for `O=S(=O)(c1ccc(Nc2ncc(/C=C/c3ccc4c(c3)CC/C4=N/O)cn2)cc1)C1CCNCC1` [5-(2-{2-[4-(Piperidine-4-sulfonyl)-phenylamino]-pyrimidin-5-yl}-vinyl)-indan-1-one oxime] are 593 nM and 3650 nM.
Take `O=S(=O)(c1ccc(Nc2ncc(/C=C/c3ccc(Cl)c4[nH]ccc34)cn2)cc1)C1CCNCC1` [5-((E)-2-(7-chloro-1H-indol-4-yl)vinyl)-N-(4-(piperidin-ylsulfonyl)phenyl)pyrimidin-2-amine Hydrochloride]: the IC50 against Abl kinase came to 15 nM; at Abl (T315I) it was 156 nM.
On the same counts, the results for `Nc1nc2c(/C=C/c3cnc(Nc4ccc(S(=O)(=O)C5CCNCC5)cc4)nc3)cccc2s1` [4-((E)-2-(2-(4-(piperidin-4-ylsulfonyl)phenylamino)pyrimidin-5-yl)vinyl)benzo[d]thiazol-2-amine Hydrochloride] are 39 nM and 394 nM.
Turning to `C=Cc1cnc(Nc2ccc(S(=O)(=O)C3CCNCC3)cc2)nc1` [N-(4-(piperidin-4-ylsulfonyl)phenyl)-5-vinylpyrimidin-2-amine trifluoroacetate], the IC50 was determined as 1390 nM against Abl kinase and 368 nM at Abl (T315I).
On the same counts, the results for `O=C(Nc1nc2ccc(/C=C/c3cnc(Nc4ccc(S(=O)(=O)C5CCNCC5)cc4)nc3)cc2s1)c1cccc(F)c1` [N-(6-((E)-2-(2-(4-(piperidin-4-ylsulfonyl)phenylamino)pyrimidin-5-yl)vinyl)benzo[d]thiazol-2-yl)-3-fluorobenzamide Hydrochloride] are 629 nM and 2740 nM.
On the same counts, the results for `Nc1nc2ccc(/C=C/c3cnc(Nc4ccc(S(=O)(=O)N5CCC(NCCO)CC5)cc4)nc3)cc2s1` [2-[(1-{[4-({5-[(E)-2-(2-amino-1,3-benzothiazol-6-yl)vinyl]pyrimidin-2-yl}amino)phenyl]sulfonyl}piperidin-4-yl)amino]ethanol] are 158 nM and 146 nM.
Consider `O=S(=O)(NCCN1CCCC1)c1ccc(Nc2ncc(/C=C/c3cccc4[nH]ccc34)cn2)cc1` [4-({5-[(E)-2-(1H-indol-4-yl)vinyl]pyrimidin-2-yl}amino)--N-[4-(2-pyrrolidin-1-ylethyl)benzenesulfonamide], for which the IC50 against Abl kinase stood at 26 nM; on Abl (T315I), 738 nM.
As to `O=S(=O)(c1ccc(Nc2ncc(/C=C/c3cccc(-c4ncc[nH]4)c3)cn2)cc1)C1CCNCC1` [5-((E)-3-(1H-imidazol-2-yl)styryl))-N-(4-(piperidin-4-ylsulfonyl)phenyl)pyrimidin-2-amine], the 50% inhibitory concentration (IC50) at Abl kinase was determined as 159 nM; against Abl (T315I), 2720 nM.
As to `O=C(Nc1nc2ccc(/C=C/c3cnc(Nc4ccc(S(=O)(=O)C5CCNCC5)cc4)nc3)cc2s1)c1cccc(C(F)(F)F)c1` [N-(6-((E)-2-(2-(4-(piperidin-4-ylsulfonyl)phenylamino)pyrimidin-5-(trifluoromethyl)benzamide Hydrochloride], the values for the half-inhibitory concentration (IC50) against Abl kinase and against Abl (T315I) were 967 nM and 332 nM, respectively.
On the same counts, the results for `NC(=O)CN(C1CCNCC1)S(=O)(=O)c1ccc(Nc2ncc(/C=C/c3ccc4nc(N)sc4c3)cn2)cc1` [[4-({5-[(E)-2-(2-amino-1,3-benzothiazol-6-yl)vinyl]pyrimidin-yl}amino)phenyl]sulfonyl}-N2-piperidin-4-ylglycinamide] are 113 nM and 96 nM.
The like results for `Nc1nc2ccc(/C=C/c3cnc(Nc4ccc(S(=O)(=O)N5CCCC(O)C5)cc4)nc3)cc2s1` (stereo not shown) [(E)-1-(4-(5-(2-(2-aminobenzo[d]thiazol-6-yl)vinyl)pyrimidin-2-ylamino)phenylsulfonyl)piperidin-3-ol] were, in that order, 432 nM and 214 nM.
For the molecule `Oc1cccc(/C=C/c2cnc(Nc3ccc(OCCN4CCCC4)cc3)nc2)c1` [3-((E)-2-(2-(4-(2-(pyrrolidin-1-yl)ethoxy)phenylamino)pyrimidin-5-yl)vinyl)phenol trifluoroacetate], the half-inhibitory concentration (IC50) was determined as 30 nM against Abl kinase and 297 nM against Abl (T315I).
In the case of `Cc1nc(Nc2ccc(S(=O)(=O)NCCN3CCCC3)cc2)ncc1/C=C/c1cccc(O)c1` [4-{5-[2-(3-Hydroxy-phenyl)-vinyl]-4-methyl-pyrimidin-2-ylamino}-N-(2-pyrrolidin-1-yl-ethyl)-benzenesulfonamide], the half-inhibitory concentration (IC50) against Abl kinase came to 39 nM; on Abl (T315I), 436 nM.
On the same counts, the results for `O=S(=O)(c1ccc(Nc2ncc(/C=C/c3cccc4[nH]ccc34)cn2)cc1)N(CCO)C1CCNCC1` [N-(2-hydroxyethyl)-4-({5-[(E)-2-(1H-indol-4-yl)vinyl]pyrimidin-2-yl}amino)-N-piperidin-4-ylbenzenesulfonamide] are 430 nM and 728 nM.
On the same counts, the results for `O=C(Nc1ccc(/C=C/c2cnc(Nc3ccc(S(=O)(=O)C4CCNCC4)cc3)nc2)cc1)c1cccc(C(F)(F)F)c1` [N-(4-((E)-2-(2-(4-(piperidin-4-ylsulfonyl)phenylamino)pyrimidin-5-yl)vinyl)phenyl)-3-(trifluoromethyl)benzamide Hydrochloride] are 506 nM and 1010 nM.
Take `O=S(=O)(NCCO)c1ccc(Nc2ncc(/C=C/c3cccc(O)c3)cn2)cc1N1CCNCC1` [N-(2-hydroxyethyl)-4-({5-[(E)-2-(3-hydroxyphenyl)vinyl]pyrimidin-2-yl}amino)-2-piperazin-1-ylbenzenesulfonamide trifluoroacetic acid salt]: the figures for the half-maximal inhibitory concentration (IC50) against Abl kinase and against Abl (T315I) were 66 nM and 514 nM, respectively.
The like results for `O=C(Nc1cccc(/C=C/c2cnc(Nc3ccc(S(=O)(=O)C4CCNCC4)cc3)nc2)c1)c1cccc(C(F)(F)F)c1` [N-(3-((E)-2-(2-(4-(piperidin-4-ylsulfonyl)phenylamino)pyrimidin-5-yl)vinyl)phenyl)-3-(trifluoromethyl)benzamide Hydrochloride] were, in that order, 17 nM and 1280 nM.
For the molecule `CN1CCC(S(=O)(=O)c2ccc(Nc3ncc(/C=C/c4cccc5[nH]ncc45)cn3)cc2)CC1` [N-(4-(1-methylpiperidin-4-ylsulfonyl)phenyl)-5-((E)-2-(1H-indazol-4-yl)vinyl)pyrimidin-2-amine], the IC50 is 32 nM against Abl kinase and 2040 nM against Abl (T315I).
As for `O=S(=O)(c1ccc(Nc2ncc(/C=C/c3cccc4[nH]ncc34)cn2)cc1N1CCNCC1)N1CCNCC1` [5-[(E)-2-(1H-indazol-4-yl)vinyl]-N-[3-piperazin-1-yl-4-piperazin-1-ylsulfonyl)phenyl]pyrimidin-2-amine], the IC50 at Abl kinase was determined as 20 nM; against Abl (T315I), 336 nM.
On to `C=Cc1cnc(Nc2ccc(S(=O)(=O)C3CCN(C)CC3)cc2)nc1` [N-(4-(1-methylpiperidin-4-ylsulfonyl)phenyl)-5-vinylpyrimidin-2-amine], for which the 50% inhibitory concentration (IC50) against Abl kinase came to 4250 nM; at Abl (T315I), 1570 nM.
The like results for `Cc1cc(Nc2ncc(/C=C/c3cccc(O)c3)cn2)cc(C)c1S(=O)(=O)N(C)CCN1CCCC1` [4-{5-[2-(3-Hydroxy-phenyl)-vinyl]-pyrimidin-2-ylamino}-2,6,N-trimethyl-N-(2-pyrrolidin-1-yl-ethyl)-benzenesulfonamide] were, in that order, 16 nM and 248 nM.
Take `O=S(=O)(c1cccc(Nc2ncc(/C=C/c3cccc4[nH]ccc34)cn2)c1)N1CCNCC1` [5-[(E)-2-(1H-indol-4-yl)vinyl]-N-{3-(piperazin-1-ylsulfonyl)phenyl]pyrimidin-2-amine]: the IC50 at Abl kinase was 244 nM; against Abl (T315I) it was roughly 10000 nM.
